Data reported in patent US20190085024A1, “Alpha-Ketoamide Inhibitors Of Cysteine Proteases” (Phelix Therapeutics, priority 2017, published 2019).
pKi: −log10 of the molar value. *1 amine or outer side, *2 acyl side, *3 side chain or, on linkers, in order; H or OH if unused. Where a SMILES comes first, the peptide text is derived from it. [ ]: non-standard residue; d: D form. 2Nal = N[CH](Cc1ccc2ccccc2c1)C(=O)O; X1 = CCC(C)C(N[*:1])C(=O)C(=O)[*:2]

Legend:
Cathepsin L = Cathepsin L (Homo sapiens, UniProt P07711); assay: Cathepsin L enzyme assay; format: biochemical; settings: Ki by Morrison equation; pH 5.5, substrate Z-Phe-Arg-Amc; read-out: Cat L
Source text: Two wells contained DMSO only for controls.
Velocity was converted to μM/sec.

Calpain = Calpain enzyme assay; format: biochemical; settings: Ki by Morrison equation; pH 7.5, 5 mM CaCl2

Cathepsin L, sequence (P07711 114-333, species assumed): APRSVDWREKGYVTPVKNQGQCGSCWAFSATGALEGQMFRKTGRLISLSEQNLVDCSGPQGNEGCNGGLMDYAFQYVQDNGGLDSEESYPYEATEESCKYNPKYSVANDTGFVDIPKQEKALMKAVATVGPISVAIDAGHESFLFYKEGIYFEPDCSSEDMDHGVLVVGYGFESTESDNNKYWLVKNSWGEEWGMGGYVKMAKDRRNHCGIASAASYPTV

CCC(C)C(NC(=O)C(=O)CCNC(=O)Cc1ccccc1)C(=O)NC(C)(C)C(=O)O (centres unmarked) [PHELIX133, 2-methyl-2-(3-methyl-2-(2-oxo-4-(2-phenylacetamido)butanamido)pentanamido)propanoic acid]
pKi (Cathepsin L): 3.68

CC(NC(=O)C(Cc1ccccc1)NC(=O)Cc1ccccc1)C(=O)C(=O)NC(Cc1ccccc1)C(=O)NC(Cc1ccc(-c2ccccc2)cc1)C(N)=O (centres unmarked) [PHELIX213, N-(1-((3-([1,1′-biphenyl]-4-yl)-1-amino-1-oxopropan-2-yl)amino)-1-oxo-3-phenylpropan-2-yl)-2-oxo-3-(3-phenyl-2-(2-phenylacetamido)propanamido)butanamide]
pKi (Calpain): < 5.00

CC(NC(=O)C(Cc1ccccc1)NC(=O)Cc1ccccc1)C(=O)C(=O)NC(Cc1ccccc1)C(=O)NC(Cc1ccc2ccccc2c1)C(N)=O (centres unmarked) [PHELIX216, N-(1-((1-amino-3-(naphthalen-2-yl)-1-oxopropan-2-yl)amino)-1-oxo-3-phenylpropan-2-yl)-2-oxo-3-(3-phenyl-2-(2-phenylacetamido)propanamido)butanamide]
pKi (Calpain): < 4.00
pKi (Cathepsin L): < 3.00

CCC(C)C(NC(=O)C(=O)C(C)NC(=O)C(Cc1ccccc1)NC(=O)Cc1ccccc1)C(=O)NC1(C(=O)O)CCCC1 (centres unmarked) [PHELIX217, 1-(3-methyl-2-(2-oxo-3-(3-phenyl-2-(2-phenylacetamido)propanamido)butanamido)pentanamido)cyclopentane-1-carboxylic acid]
pKi (Calpain): < 4.00
pKi (Cathepsin L): 2.97

CCC(C)C(NC(=O)C(=O)CCNC(=O)C(Cc1ccccc1)NC(=O)Cc1ccccc1)C(=O)NC(C)(C)C(=O)O (centres unmarked) [PHELIX218, 13-benzyl-5-(sec-butyl)-2,2-dimethyl-4,7,8,12,15-pentaoxo-16-phenyl-3,6,11,14-tetraazahexadecanoic acid]
pKi (Cathepsin L): < 3.00

CC(NC(=O)C(Cc1ccccc1)NC(=O)Cc1ccccc1)C(=O)C(=O)NC(Cc1ccccc1)C(=O)NC(Cc1ccc(-c2ccccc2)cc1)C(N)=O (centres unmarked) [PHELIX247, N-(1-((3-([1,1′-biphenyl]-4-yl)-1-amino-1-oxopropan-2-yl)amino)-1-oxo-3-phenylpropan-2-yl)-2-oxo-3-(3-phenyl-2-(2-phenylacetamido)propanamido)butanamide]
pKi (Calpain): < 5.00

CC(NC(=O)C(Cc1ccccc1)NC(=O)Cc1ccccc1)C(=O)C(=O)NC(Cc1ccccc1)C(=O)NC(Cc1ccc(-c2ccccc2)cc1)C(N)=O (centres unmarked) [PHELIX248, N-(1-((3-([1,1′-biphenyl]-4-yl)-1-amino-1-oxopropan-2-yl)amino)-1-oxo-3-phenylpropan-2-yl)-2-oxo-3-(3-phenyl-2-(2-phenylacetamido)propanamido)butanamide]
pKi (Calpain): < 5.00

CCC(C)C(NC(=O)C(CC(C)C)NC(=O)OCc1ccccc1)C(=O)C(=O)NCC(=O)NC(Cc1ccc2ccccc2c1)C(N)=O (centres unmarked) [PHELIX257, benzyl (1-((1-((2-((1-amino-3-(naphthalen-2-yl)-1-oxopropan-2-yl)amino)-2-oxoethyl)amino)-4-methyl-1,2-dioxohexan-3-yl)amino)-4-methyl-1-oxopentan-2-yl)carbamate]
pKi (Calpain): 9.04

CCC(C)C(NC(=O)C(CC(C)C)NC(=O)OCc1ccccc1)C(=O)C(=O)NC(CCCNC(=N)N)C(=O)NC(Cc1ccc2ccccc2c1)C(N)=O (centres unmarked) [PHELIX289, benzyl (1-((1-((1-((1-amino-3-(naphthalen-2-yl)-1-oxopropan-2-yl)amino)-5-guanidino-1-oxopentan-2-yl)amino)-4-methyl-1,2-dioxohexan-3-yl)amino)-4-methyl-1-oxopentan-2-yl)carbamate]
pKi (Calpain): 7.69
pKi (Cathepsin L): > 9.70

CC[C@H](C)C(NC(=O)[C@H](CC(C)C)NC(=O)OCc1ccccc1)C(=O)C(=O)N[C@@H](CCCNC(=N)N)C(N)=O (some centres unmarked) [PHELIX290, benzyl (1-((1-((1-amino-5-guanidino-1-oxopentan-2-yl)amino)-4-methyl-1,2-dioxohexan-3-yl)amino)-4-methyl-1-oxopentan-2-yl)carbamate]
pKi (Calpain): 8.14
pKi (Cathepsin L): 8.57

CCC(C)C(NC(=O)C(CC(C)C)NC(=O)OCc1ccccc1)C(=O)C(=O)N(C)CC(=O)NC(Cc1ccc2ccccc2c1)C(N)=O (centres unmarked) [PHELIX291, benzyl (1-((1-((2-((1-amino-3-(naphthalen-2-yl)-1-oxopropan-2-yl)amino)-2-oxoethyl)(methyl)amino)-4-methyl-1,2-dioxohexan-3-yl)amino)-4-methyl-1-oxopentan-2-yl)carbamate]
pKi (Calpain): < 5.00
pKi (Cathepsin L): 5.23

CCC(C)C(C(=O)C(=O)NCC(=O)NC(Cc1ccc2ccccc2c1)C(N)=O)N(C)C(=O)C(CC(C)C)NC(=O)OCc1ccccc1 (centres unmarked) [PHELIX292, benzyl (1-((1-((2-((1-amino-3-(naphthalen-2-yl)-1-oxopropan-2-yl)amino)-2-oxoethyl)amino)-4-methyl-1,2-dioxohexan-3-yl)(methyl)amino)-4-methyl-1-oxopentan-2-yl)carbamate]
pKi (Calpain): 5.37
pKi (Cathepsin L): 7.43

CCC(C)C(NC(=O)C(CC(C)C)NC(=O)OCc1ccccc1)C(=O)C(=O)NCC(=O)NC(Cc1ccc2ccccc2c1)C(N)=O (centres unmarked) [PHELIX293, benzyl (1-((1-((2-((1-amino-3-(naphthalen-2-yl)-1-oxopropan-2-yl)amino)-2-oxoethyl)amino)-4-methyl-1,2-dioxohexan-3-yl)amino)-4-methyl-1-oxopentan-2-yl)carbamate]
pKi (Calpain): 5.92

CCC(C)C(NC(=O)C(CC(C)C)NC(=O)C(Cc1ccccc1)NC(=O)OCc1ccccc1)C(=O)C(=O)NC(CCCNC(=N)N)C(N)=O (centres unmarked) [PHELIX294, benzyl (1-amino-10-(sec-butyl)-6-carbamoyl-1-imino-13-isobutyl-8,9,12,15-tetraoxo-17-phenyl-2,7,11,14-tetraazaheptadecan-16-yl)carbamate]
pKi (Calpain): 9.31
pKi (Cathepsin L): 8.60

CCC(C)C(NC(=O)C(CC(C)C)NC(=O)OCc1ccccc1)C(=O)C(=O)NC(C)C(=O)NC(Cc1ccc2ccccc2c1)C(N)=O (centres unmarked) [PHELIX295, benzyl (1-((1-((1-((1-amino-3-(naphthalen-2-yl)-1-oxopropan-2-yl)amino)-1-oxopropan-2-yl)amino)-4-methyl-1,2-dioxohexan-3-yl)amino)-4-methyl-1-oxopentan-2-yl)carbamate]
pKi (Calpain): 8.69
pKi (Cathepsin L): 9.08

CCC(C)C(NC(=O)C(CC(C)C)NC(=O)OCc1ccccc1)C(=O)C(=O)NC(C)(C)C(=O)NC(Cc1ccc2ccccc2c1)C(N)=O (centres unmarked) [PHELIX296, benzyl (1-((1-((1-((1-amino-3-(naphthalen-2-yl)-1-oxopropan-2-yl)amino)-2-methyl-1-oxopropan-2-yl)amino)-4-methyl-1,2-dioxohexan-3-yl)amino)-4-methyl-1-oxopentan-2-yl)carbamate]
pKi (Calpain): 5.81
pKi (Cathepsin L): 5.76

CCC(C)C(NC(=O)C(CC(C)C)NC(=O)OCc1ccccc1)C(=O)C(=O)NC1(C(=O)NC(Cc2ccc3ccccc3c2)C(N)=O)CC1 (centres unmarked) [PHELIX298, benzyl (1-((1-((1-((1-amino-3-(naphthalen-2-yl)-1-oxopropan-2-yl)carbamoyl)cyclopropyl)amino)-4-methyl-1,2-dioxohexan-3-yl)amino)-4-methyl-1-oxopentan-2-yl)carbamate]
pKi (Calpain): 5.59
pKi (Cathepsin L): 6.50

CCC(C)C(NC(=O)C(CC1CC1)NC(=O)OCc1ccccc1)C(=O)C(=O)NCC(=O)NC(Cc1ccc2ccccc2c1)C(N)=O (centres unmarked) [PHELIX299, benzyl (1-((1-((2-((1-amino-3-(naphthalen-2-yl)-1-oxopropan-2-yl)amino)-2-oxoethyl)amino)-4-methyl-1,2-dioxohexan-3-yl)amino)-3-cyclopropyl-1-oxopropan-2-yl)carbamate]
pKi (Calpain): 8.32
pKi (Cathepsin L): 7.91

CCC(C)C(NC(=O)C(Cc1c[nH]cn1)NC(=O)Cc1ccccc1)C(=O)C(=O)NCC(=O)NC(Cc1ccc2ccccc2c1)C(N)=O (centres unmarked) [PHELIX302, 3-(3-(1H-imidazol-4-yl)-2-(2-phenylacetamido)propanamido)-N-(2-((1-amino-3-(naphthalen-2-yl)-1-oxopropan-2-yl)amino)-2-oxoethyl)-4-methyl-2-oxohexanamide]
pKi (Calpain): 6.70
pKi (Cathepsin L): 6.41

CCC(C)C(NC(=O)C(CC(C)C)NC(=O)OCc1ccccc1)C(=O)C(=O)NCC(=O)NCc1ccc2ccccc2c1 (centres unmarked) [PHELIX303, benzyl (4-methyl-1-((4-methyl-1-((2-((naphthalen-2-ylmethyl)amino)-2-oxoethyl)amino)-1,2-dioxohexan-3-yl)amino)-1-oxopentan-2-yl)carbamate]
pKi (Calpain): 8.22
pKi (Cathepsin L): 8.94

CCC(C)C(NC(=O)C(CC(C)C)NC(C)=O)C(=O)C(=O)NCC(=O)NC(Cc1ccc2ccccc2c1)C(N)=O (centres unmarked) [PHELIX307, 3-(2-acetamido-4-methylpentanamido)-N-(2-((1-amino-3-(naphthalen-2-yl)-1-oxopropan-2-yl)amino)-2-oxoethyl)-4-methyl-2-oxohexanamide]
pKi (Calpain): 8.58

CCC(C)C(NC(=O)C(CC(C)C)NC(C)=O)C(=O)C(=O)NCC(=O)NC(Cc1ccc2ccccc2c1)C(N)=O (centres unmarked) [PHELIX310]
pKi (Calpain): 8.26

CCC(C)C(NC(=O)CNC(=O)C(Cc1ccc2ccccc2c1)NC(C)=O)C(=O)C(=O)NC(CC(C)C)C(=O)NC(Cc1ccccc1)C(N)=O (centres unmarked) [PHELIX338, 3-(2-(2-acetamido-3-(naphthalen-2-yl)propanamido)acetamido)-N-(1-((1-amino-1-oxo-3-phenylpropan-2-yl)amino)-4-methyl-1-oxopentan-2-yl)-4-methyl-2-oxohexanamide] (Ac-[2Nal]G[X1]LF-NH2; configuration not given here)
pKi (Cathepsin L): 5.54

CC(C)CC(NC(=O)C(Cc1ccccc1)NC(=O)OCc1ccccc1)C(=O)NC(Cc1ccccc1)C(=O)C(=O)NC(CCCNC(=N)N)C(N)=O (centres unmarked) [PHELIX339, benzyl (1-amino-10-benzyl-6-carbamoyl-1-imino-13-isobutyl-8,9,12,15-tetraoxo-17-phenyl-2,7,11,14-tetraazaheptadecan-16-yl)carbamate]
pKi (Calpain): 8.66

CCC(C)C(NC(=O)C(CC(C)C)NC(=O)OCc1ccccc1)C(=O)C(=O)N(C)C(Cc1ccccc1)C(N)=O (centres unmarked) [PHELIX358, benzyl (1-((1-((1-amino-1-oxo-3-phenylpropan-2-yl)(methyl)amino)-4-methyl-1,2-dioxohexan-3-yl)amino)-4-methyl-1-oxopentan-2-yl)carbamate]
pKi (Cathepsin L): < 6.00
